Reference: publication PMC10194981, “Chemosensory protein regulates the behavioural response of Frankliniella intonsa and Frankliniella occidentalis to tomato zonate spot virus–Infected pepper (Capsicum annuum)” (PLOS Pathogens, 2023)
Entries after “also recorded” stand apart in the source; their conditions may differ.

Columns and labels:
F. intonsa antennae = test: Electroantennogram (EAG) assay; design: species or system Frankliniella intonsa; conditions: excised F. intonsa antennae
Experimental: The FintCSP1, FintCSP2, FintOBP, FintOR, FoccCSP, and enhanced green fluorescent protein (EGFP) coding sequences were obtained from GenBank under accession numbers MT199111, MT211602, OK067245, MT211603, AEP27186.1, and U55761.1, respectively. Primers were designed using Primer Premier 5.0, and the T7 promoter sequence (5′-[…]-3′) was added to the 5′ end of each primer (S1 Table). DNA fragments containing T7 promoter sequences were amplified by PCR using pEASY-T1/target gene or pUC-EGFP (preserved in the laboratory) plasmid DNA as template. Then, a double-stranded RNA (dsRNA) was produced from each target gene using the HiScribe T7 Quick High Yield RNA Synthesis Kit (New England Biolabs) according to the manufacturer’s instructions. Six hundred 2-day-old female F. intonsa or two hundred 2-day-old female F. occidentalis adults were anesthetized using CO2 and microinjected with 40 nL (3 μg/μL) dsRNA (dsFintCSP1 dsFintCSP2, dsFintOBP, dsFintOR or dsFoccCSP or dsEGFP) using a CellTram Oil microinjector (Eppendorf, Hamburg, Germany). The injected thrips were kept on broad beans in an artificial climate incubator as described above and used in subsequent RNAi experiments. Three biological replicates were conducted for each treatment with each dsRNA.
At 24 h after dsRNA injection, the electrophysiological responses of F. intonsa antennae to six volatile components (i.e., m-cymene, cis-3-hexenal, (+)-2-carene, trans-2-hexenal, α-phellandrene, and α-humulene) or F. occidentalis antennae to cis-3-hexenal were recorded using EAG. Antennae of female adult thrips were cut off at the base, and the distal terminus was carefully removed. The tested compounds were dissolved in liquid paraffin, with pure liquid paraffin used as a negative control. An Ag-AgCl2 glass electrode and Kaissling electrode solution were used in the experiment according to Tian et al.. The base of the antenna was inserted into the glass capillary filled with electrode solution at the end of the reference electrode; the top of the antenna was connected to the glass capillary at the end of the recording electrode to ensure no bubbles in the glass capillary. After successful connection, the antennae were stimulated with each chemical in the following order: liquid paraffin, volatile compounds, and liquid paraffin. Stimulus time was 0.2 s with each stimulus at 40 s intervals. At least 10 antennae were tested for each volatile compound. The EAG values to volatile compounds were calculated using the following equation: absolute value of EAG reaction = reaction value of the tested sample—average value of two control measurements.

[1] = biological target: recombinant wild-type FintCSP1 (Frankliniella intonsa, UniProt A0A891LVF4); test: Fluorescence (1-NPN) binding and competitive binding assay, wild-type FintCSP1
Chain of recombinant wild-type FintCSP1 (A0A891LVF4 entry or part of it): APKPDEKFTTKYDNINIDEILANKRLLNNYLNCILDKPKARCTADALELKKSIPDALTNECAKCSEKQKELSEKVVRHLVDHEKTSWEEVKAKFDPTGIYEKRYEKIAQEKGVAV
Experimental: (§1) FintCSP1 and FoccCSP DNA were released from pEASY-T1/FintCSP1 and pEASY-T1/FoccCSP, respectively, by restriction digestion with BamHI and XhoI and cloned into the pET-30a vector (Invitrogen). The resulting construct was transformed into Transetta (DE3) Escherichia coli competent cells (Transgen). The production of recombinant FintCSP1 and FoccCSP was induced by addition of isopropyl-β-D-1-thiogalactopyranoside (IPTG, 0.2 mM) at 15°C and purified by Ni ion affinity chromatography (Sangon Biotech, Shanghai, China). The target protein was verified by 15% SDS-PAGE, and its concentration was determined with a BCA protein assay kit (Thermo Scientific, Rockford, IL, USA). The recombinant purified protein was stored at −20°C until use.
(§2) The binding affinity of FintCSP1 and FoccCSP to the fluorescent probe N-phenyl-1-naphthylamine (1-NPN) was tested using a Spectramax M2 fluorescence spectrometer (Molecular Devices, USA) as reported previously. […] The 1-NPN/FintCSP1 or 1-NPN/FoccCSP mixture was excited at 280 nm, and the emission spectra were recorded at 415 nm. The binding constants (Kd) of FintCSP1 or FoccCSP to 1-NPN were calculated by Scatchard analysis using Prism 5 software (GraphPad, La Jolla, CA, USA). Assuming a protein activity of 100% and that the volatile compound binds to the protein in a 1:1 ratio at saturation, the dissociation constants (Ki) of FintCSP1 or FoccCSP for each ligand were calculated according to the IC50 (the concentration when the ligand replaces 50% of the probe) value of the volatile compounds. The Ki values were calculated according to the following equation: Ki = [IC50]/(1 + [1-NPN]/K1-NPN), where [1-NPN] is the free concentration of 1-NPN, and K1-NPN is the Kd of the 1-NPN/FintCSP1 or 1-NPN/FoccCSP.

FoccCSP-Gln87Ala = FoccCSP-Gln87Ala (Frankliniella occidentalis, UniProt G4Y3X1, Q87A); test: Fluorescence (1-NPN) binding and competitive binding assay, FoccCSP mutant
Chain of FoccCSP-Gln87Ala (G4Y3X1 entry or part of it Q87A): as the sequence (A0A891LVF4 entry or part of it) above, with D5E, I15V, A44N, A62M, Q68A, V80A, D81E, H82K, T85E, Q109K counted along it
Experimental: (§3) The binding affinity of FintCSP1 and FoccCSP to the fluorescent probe N-phenyl-1-naphthylamine (1-NPN) was tested using a Spectramax M2 fluorescence spectrometer (Molecular Devices, USA) as reported previously. Volatile compounds and 1-NPN were first dissolved to a concentration of 1 mM in HPLC-grade methanol and dissolved to their indicated final concentration (2–20 μM) to titrate 2 μM protein solutions resuspended in 50 mM Tris-HCl (pH 7.4). The 1-NPN/FintCSP1 or 1-NPN/FoccCSP mixture was excited at 280 nm, and the emission spectra were recorded at 415 nm. The binding constants (Kd) of FintCSP1 or FoccCSP to 1-NPN were calculated by Scatchard analysis using Prism 5 software (GraphPad, La Jolla, CA, USA). Assuming a protein activity of 100% and that the volatile compound binds to the protein in a 1:1 ratio at saturation, the dissociation constants (Ki) of FintCSP1 or FoccCSP for each ligand were calculated according to the IC50 (the concentration when the ligand replaces 50% of the probe) value of the volatile compounds. The Ki values were calculated according to the following equation: Ki = [IC50]/(1 + [1-NPN]/K1-NPN), where [1-NPN] is the free concentration of 1-NPN, and K1-NPN is the Kd of the 1-NPN/FintCSP1 or 1-NPN/FoccCSP.
(§4) To verify the key amino acids of FintCSP1 and FoccCSP that bind to cis-3-hexenal, six amino acid residues of FintCSP1 were mutated (Lys26Ala, Phe27Ala, Thr28Ala, Glu67Ala, Ser84Ala, and the negative control residue Val132Ala) and nine amino acid residues of FoccCSP were mutated (Lys26Ala, Phe27Ala, Thr28Ala, Thr29Ala, Tyr31Ala, Asp64Ala, Glu67Ala, Gln87Ala, and the negative control residue Val132Ala) with the Fast Mutagenesis System Kit (Transgen Biotech, Beijing, China) using the pET-30a/FintCSP1 and pET-30a/FoccCSP plasmid DNA as template, respectively. Specific primers were designed using Primer Premier 5.0 according to the instructions of the Fast Mutagenesis System Kit (S1 Table). After validation by sequencing, each recombinant variant protein was produced and purified as described above, and their binding affinity to cis-3-hexenal was measured as described above.

FoccCSP-Lys26Ala = FoccCSP-Lys26Ala (Frankliniella occidentalis, UniProt G4Y3X1, K26A); test: as above
Chain of FoccCSP-Lys26Ala (G4Y3X1 entry or part of it K26A): as the sequence (A0A891LVF4 entry or part of it) above, with D5E, K7A, I15V, A44N, A62M, V80A, D81E, H82K, T85E, Q109K counted along it
Experimental: as §3, §4

FoccCSP-Tyr31Ala = FoccCSP-Tyr31Ala (Frankliniella occidentalis, UniProt G4Y3X1, Y31A); test: as above
Chain of FoccCSP-Tyr31Ala (G4Y3X1 entry or part of it Y31A): as the sequence (A0A891LVF4 entry or part of it) above, with D5E, Y12A, I15V, A44N, A62M, V80A, D81E, H82K, T85E, Q109K counted along it
Experimental: as §3, §4

FintCSP1-Ser84Ala = FintCSP1-Ser84Ala (Frankliniella intonsa, UniProt A0A891LVF4, S84A); test: Fluorescence (1-NPN) binding and competitive binding assay, FintCSP1 mutant
Chain of FintCSP1-Ser84Ala (A0A891LVF4 entry or part of it S84A): as the sequence (A0A891LVF4 entry or part of it) above, with S65A counted along it
Experimental: as §3
as §4, with “Specific primers were designed using Primer Premier 5.0 according to the instructions of the Fast Mutagenesis System Kit (S1 Table).” left out

FintCSP1-Val132Ala = FintCSP1-Val132Ala (Frankliniella intonsa, UniProt A0A891LVF4, V132A); test: Fluorescence (1-NPN) binding and competitive binding assay, FintCSP1 mutant (negative control residue)
Chain of FintCSP1-Val132Ala (A0A891LVF4 entry or part of it V132A): as the sequence (A0A891LVF4 entry or part of it) above, with V113A counted along it
Experimental: as §3
as §4, with “Specific primers were designed using Primer Premier 5.0 according to the instructions of the Fast Mutagenesis System Kit (S1 Table).” left out

FintCSP1-Thr28Ala = FintCSP1-Thr28Ala (Frankliniella intonsa, UniProt A0A891LVF4, T28A); test: Fluorescence (1-NPN) binding and competitive binding assay, FintCSP1 mutant
Chain of FintCSP1-Thr28Ala (A0A891LVF4 entry or part of it T28A): as the sequence (A0A891LVF4 entry or part of it) above, with T9A counted along it
Experimental: as §2, §4

FintCSP1-Glu67Ala = FintCSP1-Glu67Ala (Frankliniella intonsa, UniProt A0A891LVF4, E67A); test: as above
Chain of FintCSP1-Glu67Ala (A0A891LVF4 entry or part of it E67A): as the sequence (A0A891LVF4 entry or part of it) above, with E48A counted along it
Experimental: as §2, §4

FintCSP1-Lys26Ala = FintCSP1-Lys26Ala (Frankliniella intonsa, UniProt A0A891LVF4, K26A); test: as above
Chain of FintCSP1-Lys26Ala (A0A891LVF4 entry or part of it K26A): as the sequence (A0A891LVF4 entry or part of it) above, with K7A counted along it
Experimental: as §2, §4

FintCSP1-Phe27Ala = FintCSP1-Phe27Ala (Frankliniella intonsa, UniProt A0A891LVF4, F27A); test: as above
Chain of FintCSP1-Phe27Ala (A0A891LVF4 entry or part of it F27A): as the sequence (A0A891LVF4 entry or part of it) above, with F8A counted along it
Experimental: as §2, §4

[2] = biological target: recombinant wild-type FoccCSP (Frankliniella occidentalis, UniProt G4Y3X1); test: Fluorescence (1-NPN) binding and competitive binding assay, wild-type FoccCSP
Chain of recombinant wild-type FoccCSP (G4Y3X1 entry or part of it): as the sequence (A0A891LVF4 entry or part of it) above, with D5E, I15V, A44N, A62M, V80A, D81E, H82K, T85E, Q109K counted along it
Experimental: as §1, §3

FoccCSP-Thr29Ala = FoccCSP-Thr29Ala (Frankliniella occidentalis, UniProt G4Y3X1, T29A); test: Fluorescence (1-NPN) binding and competitive binding assay, FoccCSP mutant
Chain of FoccCSP-Thr29Ala (G4Y3X1 entry or part of it T29A): as the sequence (A0A891LVF4 entry or part of it) above, with D5E, T10A, I15V, A44N, A62M, V80A, D81E, H82K, T85E, Q109K counted along it
Experimental: as §2, §4

FoccCSP-Phe27Ala = FoccCSP-Phe27Ala (Frankliniella occidentalis, UniProt G4Y3X1, F27A); test: as above
Chain of FoccCSP-Phe27Ala (G4Y3X1 entry or part of it F27A): as the sequence (A0A891LVF4 entry or part of it) above, with D5E, F8A, I15V, A44N, A62M, V80A, D81E, H82K, T85E, Q109K counted along it
Experimental: as §2, §4

FoccCSP-Asp64Ala = FoccCSP-Asp64Ala (Frankliniella occidentalis, UniProt G4Y3X1, D64A); test: as above
Chain of FoccCSP-Asp64Ala (G4Y3X1 entry or part of it D64A): as the sequence (A0A891LVF4 entry or part of it) above, with D5E, I15V, A44N, D45A, A62M, V80A, D81E, H82K, T85E, Q109K counted along it
Experimental: as §2, §4

FoccCSP-Glu67Ala = FoccCSP-Glu67Ala (Frankliniella occidentalis, UniProt G4Y3X1, E67A); test: as above
Chain of FoccCSP-Glu67Ala (G4Y3X1 entry or part of it E67A): as the sequence (A0A891LVF4 entry or part of it) above, with D5E, I15V, A44N, E48A, A62M, V80A, D81E, H82K, T85E, Q109K counted along it
Experimental: as §2, §4

FoccCSP-Thr28Ala = FoccCSP-Thr28Ala (Frankliniella occidentalis, UniProt G4Y3X1, T28A); test: as above
Chain of FoccCSP-Thr28Ala (G4Y3X1 entry or part of it T28A): as the sequence (A0A891LVF4 entry or part of it) above, with D5E, T9A, I15V, A44N, A62M, V80A, D81E, H82K, T85E, Q109K counted along it
Experimental: as §2, §4

FoccCSP-Val132Ala = FoccCSP-Val132Ala (Frankliniella occidentalis, UniProt G4Y3X1, V132A); test: Fluorescence (1-NPN) binding and competitive binding assay, FoccCSP mutant (negative control residue)
Chain of FoccCSP-Val132Ala (G4Y3X1 entry or part of it V132A): as the sequence (A0A891LVF4 entry or part of it) above, with D5E, I15V, A44N, A62M, V80A, D81E, H82K, T85E, Q109K, V113A counted along it
Experimental: as §3, §4

F. intonsa = test: Y-tube olfactometer preference test; assay type: in vivo, Frankliniella intonsa; conditions: volatile compound vs liquid paraffin control; n = 60
Experimental: F. intonsa and F. occidentalis preference tests of plant volatile cues were performed using a glass Y-tube olfactometer according to the method described by Wang et al. (2014) with minor modifications. A Y-shaped tube (1-cm inner diameter) consisted of a central tube (10 cm in length) and two arms (10 cm in length, offset by 60°) connected to two different glass odor bottles. One glass odor bottle was 50 cm in height, with a 10-cm inner diameter that contained pepper plants (14-day post-viral infection); the other glass odor bottle was 5 cm in height, with a 3-cm inner diameter for plant VOCs. The airflow in the olfactometer (200 mL/min) was filtered through activated carbon and calibrated using a flow meter at the end of each arm. To remove all visual cues, the Y-tube was positioned horizontally in a black airtight cubic box (90 cm × 60 cm × 40 cm). The tested odor sources (pepper plant VOCs) were enclosed in the odor bottles 5 min prior to each test to allow the odors to fill the arms. Thrips (2-day-old, starved for 1 h) were individually placed in the central tube and allowed to choose between the two arms. When the thrips had climbed over 2/3 of the side arm and stayed there for more than 30 s, it was considered to have made a selection. If the thrips had not made a choice after being placed in the straight arm for 5 min, the insect behaviour was scored as “no selection,” and it was not counted in the total data. The direction of the Y-tube arms and the silicone tubes were adjusted after five tested thrips to eliminate the influence of position. The Y-tube was replaced after 10 tested thrips to eliminate the possible influence of existing odors on thrips behaviour. Each treatment consisted of 20 thrips, with three replicates per treatment.
The FintCSP1, FintCSP2, FintOBP, FintOR, FoccCSP, and enhanced green fluorescent protein (EGFP) coding sequences were obtained from GenBank under accession numbers MT199111, MT211602, OK067245, MT211603, AEP27186.1, and U55761.1, respectively. Primers were designed using Primer Premier 5.0, and the T7 promoter sequence (5′-[…]-3′) was added to the 5′ end of each primer (S1 Table). DNA fragments containing T7 promoter sequences were amplified by PCR using pEASY-T1/target gene or pUC-EGFP (preserved in the laboratory) plasmid DNA as template. Then, a double-stranded RNA (dsRNA) was produced from each target gene using the HiScribe T7 Quick High Yield RNA Synthesis Kit (New England Biolabs) according to the manufacturer’s instructions. […]

## C/C1=C\CC/C(C)=C/CC(C)(C)/C=C/C1 [α-humulene]
F. intonsa antennae; 1 mg/L in liquid paraffin
  EAG peak amplitude: –0.024 mV

## CC1=CC2C(CC1)C2(C)C (single isomer, unassigned; (+)) [(+)-2-carene]
F. intonsa antennae; 1 mg/L in liquid paraffin
  EAG peak amplitude: –0.016 mV

## CCC/C=C/C=O [trans-2-hexenal]
F. intonsa antennae; 1 mg/L in liquid paraffin
  EAG peak amplitude: –0.024 mV
[1]
  IC50: > 100 µM
  Ki: > 100 µM
[1]; wild-type FintCSP1, competitive fluorescence binding assay, classes of Ki
  binding affinity to FintCSP1 (in words): no FintCSP1 binding; also recorded: could not bind

## c1ccc(Nc2cccc3ccccc23)cc1 [1-NPN, N-phenyl-1-naphthylamine, reference compound]
FoccCSP-Gln87Ala
  Kd: 20.3 ± 2.25 µM
FoccCSP-Lys26Ala
  Kd: 17.4 ± 1.32 µM
FoccCSP-Tyr31Ala
  Kd: 9.79 ± 0.87 µM
FintCSP1-Ser84Ala
  Kd: 3.48 ± 0.33 µM
FintCSP1-Val132Ala
  Kd: 6.77 ± 0.36 µM
FintCSP1-Thr28Ala
  Kd: 3.85 ± 0.41 µM
FintCSP1-Glu67Ala
  Kd: 4.5 ± 0.61 µM
FintCSP1-Lys26Ala
  Kd: 3.3 ± 0.39 µM
FintCSP1-Phe27Ala
  Kd: 4.38 ± 0.49 µM
[2]
  Kd: 6.36 ± 0.51 µM
[1]
  Kd: 6.07 ± 0.4 µM
FoccCSP-Thr29Ala
  Kd: 15.5 ± 1.74 µM
FoccCSP-Phe27Ala
  Kd: 7.09 ± 0.39 µM
FoccCSP-Asp64Ala
  Kd: 31 ± 4.55 µM
FoccCSP-Glu67Ala
  Kd: 15.7 ± 2.3 µM
FoccCSP-Thr28Ala
  Kd: 19.9 ± 2.43 µM
FoccCSP-Val132Ala
  Kd: 7.26 ± 0.66 µM

## Cc1cccc(C(C)C)c1 [m-cymene]
F. intonsa antennae; 10 mg/L in liquid paraffin
  EAG peak amplitude: approximately –0.034 mV
F. intonsa
  preference of F. intonsa in Y-tube olfactometer (in words): appeared to repel F. intonsa, but this result was not statistically significant

## CC1=CC[C@H](C(C)C)C=C1 (racemic) [α-phellandrene]
F. intonsa antennae; 10 mg/L in liquid paraffin
  EAG peak amplitude: –0.018 mV
